Test results taken from publication PMC9525273 (Nature Communications, 2022).
Where two headings read alike, the source gives them in different places.

Columns and labels:
[1] = tested on: PfATP4-mutant P. falciparum lines and their parents; conditions: cited from earlier work
[2] = tested on: NF54^G358S-3 parasites; assay: P. falciparum proliferation assay (72 h, flow cytometry, SYBR Green I/MitoTracker); type: cell-based; conditions: Plasmodium falciparum, NF54G358S-3, mean ± SEM, n = 3
Experimental: Two types of parasite proliferation assays were employed in this study, with both yielding highly consistent results. For the NF54-based lines and Dd2-B2-PfATP4^G358S and its parent, assays were initiated with cultures containing predominantly ring-stage parasites with a parasitaemia of 0.3% and a haematocrit of 1%. All assays using NF54 were performed in culture media containing 10% O + human serum. The duration of the assays was 72 h and the concentration of DMSO was <0.5% (v/v). Serial dilutions of the test compounds were performed using a Tecan D300e digital dispenser, with parasite cultures added manually. Parasite survival was assessed by flow cytometry on an Intellicyt iQue3 (Essen Bioscience), with 1× SYBR Green I (Invitrogen) and 200 nM MitoTracker Deep Red FM (Invitrogen) used to stain the nucleus and the mitochondria in live parasites, respectively. The gating strategy used to quantify parasite survival, performed using FlowJo version 10 (FlowJo LLC.), is illustrated in Supplementary Fig. 9. IC50 and IC90 values were calculated by linear interpolation of the dose-response data.

[3] = tested on: MMV665949-selected Culture 1 (from Dd2-Polδ; not cloned); assay: P. falciparum proliferation assay (72 h, fluorescent DNA-intercalating dye); type: cell-based, Plasmodium falciparum; conditions: Plasmodium falciparum, DD2; MMV665949-selected Culture 1; mean ± SEM, n = 3; read-out: IC50 value
Experimental: (§1) For experiments with all other parasites, the effects of compounds of interest on parasite proliferation was measured in 96-well plates containing serial dilutions of the compounds in culture medium, with a fluorescent DNA-intercalating dye used to detect surviving parasites. The assays were initiated with erythrocytes infected with predominantly ring-stage parasites, and the starting parasitaemia and haematocrit were both 1%. […] Fluorescence was measured using a FLUOstar OPTIMA plate reader (BMG LABTECH), with OPTIMA version 2.20R2 and MARS Data Analysis Software version 3.01 R2 (BMG LABTECH).

[4] = tested on: cipargamin-selected culture A (from Dd2-PfATP4^T418N,P990R); assay: as above; type: cell-based; conditions: Plasmodium falciparum, culture A at end of drug-exposure period, mean ± SEM, n = 3
Experimental: as §1

[5] = tested on: cipargamin-selected culture B (from Dd2-PfATP4^T418N,P990R); assay: as above; type: cell-based; conditions: Plasmodium falciparum, culture B at end of drug-exposure period, mean ± SEM, n = 3
Experimental: as §1

[6] = clinical trials, sustained periods; cited from earlier work

Row | SMILES | IC50 ([1]; genetically engineered parasites bearing L350H in PfATP4) [µM] | IC50 ([1]; genetically engineered parasites bearing P412T in PfATP4) [µM] | IC50 ([1]; parental wild-type parasites) [µM] | IC50 [2] [µM] | IC50 [3] [µM] | IC50 [4] [µM] | IC50 [5] [µM] | concentration reached in human plasma [6]
1 | N#Cc1cc(NC(=O)[C@H]2c3ccccc3C(=O)N(CC(F)(F)F)[C@@H]2c2cccnc2)ccc1F [(+)-SJ733] | 3.5 | 10 | 0.075 | – | – | – | – | –
2 | C[C@H]1Cc2c([nH]c3cc(Cl)c(F)cc23)[C@@]2(N1)C(=O)Nc1ccc(Cl)cc12 [Cipargamin] | – | – | – | 2.2 ± 0.7 | 0.00142 ± 0.0003 | 5.9 ± 0.2 | 6.2 ± 0.2 | supramicromolar concentrations
